Measurements as given in PMC9577195, “Pharmacokinetics, bioavailability, and plasma protein binding study of glytrexate, a novel multitarget antifolate” (Frontiers in Pharmacology, 2022).
Where “and” joins values, the source holds several entries; their conditions need not be identical. Equal entries are not always repeated. Entries after “also recorded” stand apart in the source; their conditions may differ. Where two headings read alike, the source gives them in different places.

Legend:
[1] = Plasma protein binding rate by ultrafiltration, rat plasma; type: in vitro ADME
Experimental: The glytrexate stock solution was diluted with 20% methanol (1% formic acid) to three mass concentrations of 50, 100, and 200 μg/ml for use. One hundred microliters of glytrexate solution of the corresponding concentration (3 duplicates each in parallel) was added to 900 μl of rat/human plasma, vortexed and mixed well to prepare plasma samples with plasma concentrations of 5, 10, and 20 μg/ml.
The plasma sample was placed in a constant temperature water bath at 37°C for a certain period to obtain an incubation solution. After the incubation solution was removed, it was placed on ice to maintain a low temperature, transferred to a filtrate tube (500 μl), and placed in a low-temperature refrigerated centrifuge at 4°C and 14,000 rpm for 20 min to obtain filtrate.
The test tube containing the drug concentration was incubated in a constant temperature water bath at 37°C. Each sample was obtained at 10 min, 30 min, 60 min, 120 min, 240 min, and 360 min and the drug concentration before and after ultrafiltration was determined. The plasma protein binding rate (%) = [(Cincubation solution-CUltrafiltrate)/Cincubation solution]×100%. GraphPad Prism 8 software was used to perform a one-way analysis of variance on the plasma protein binding rate of glytrexate between different mass concentrations in the same species.

[2] = Metabolic stability in human liver microsomes; type: in vitro ADME; settings: 37°C
Experimental: (§1) The test tube containing the drug concentration was incubated in a constant temperature water bath at 37°C. Each sample was obtained at 0, 0.5, 1.0, 1.5, 2.0, and 3.0 h, and the drug concentration was measured.
The metabolic stability of glytrexate was determined by incubation with human liver microsomes at 37°C. The reaction in the incubation system containing 10 μl of glytrexate (1 mg/ml), 50 μl of liver microsomes (1 mg/ml), and 10 μl of PBS (pH 7.4) was initiated by the addition of 30 μl of NADPH after 5 min of preincubation. The total incubation volume was 100 μl. The reaction was terminated at predefined time points (0, 0.5, 1, 1.5, 2, and 3 h). The incubations were conducted in triplicate.
Fifty microliters of the above solution was accurately drawn at different incubation time points, and 155 μl of ice-cold methanol (1% formic acid) and 5 μl of IS solution were added. The mixture was vortexed for 60 s and centrifuged at 14,000 rpm for 10 min. […] An appropriate amount of the supernatant was placed into the sample vial, and analyzed. […]
(§2) All samples were analyzed using the established LC‒MS/MS method, and MultiQuant 3.0 software was used for data processing. The glytrexate concentration at each time point was calculated, the remaining percentage was calculated, and the concentration change trend was analyzed.

[3] = Stability on incubation in human plasma at 37°C; type: in vitro ADME; settings: up to 3 h, 1 μg/ml
Experimental: as §1
Fifty microliters of the above solution was accurately drawn at different incubation time points, and 155 μl of ice-cold methanol (1% formic acid) and 5 μl of IS solution were added. The mixture was vortexed for 60 s and centrifuged at 14,000 rpm for 10 min. Then, 165 μl of supernatant was transferred to a new tube and evaporated to dryness under a gentle stream of nitrogen at room temperature. The residue was dissolved in 50 μl 20% methanol (1% formic acid), vortexed for 60 s and centrifuged at 14,000 rpm for 10 min. An appropriate amount of the supernatant was placed into the sample vial, and analyzed. Each experiment was repeated 3 times.
The plasma sample concentration was 1 μg/ml, and the concentration of the other samples was 100 μg/ml.
as §2

[4] = Pharmacokinetics and bioavailability in rats after single oral and intravenous doses; type: in vivo, Sprague-Dawley rats; settings: rat; for AUC(0-inf) / Cmax / half-life / AUC / MRT last / bioavailability / CL/F / Tmax: male, Sprague-Dawley, plasma; for AUC: read-out: AUC0-tn; for MRT last: read-out: MRT0-t; for CL/F / Tmax: po
Experimental: Pharmacokinetic and bioavailability studies were carried out in twenty-four male Sprague–Dawley rats. The rats were randomly divided into four groups (n = 6). All of them were fasted for 12 h before administration and were allowed to drink freely. Approximately 300 μl of blood was collected from the posterior canthus venous plexus of each rat into heparinized tubes at 0.1, 0.16, 0.25, 0.5, 1, 2, 4, 8, 12, and 24 h after a single oral administration (i.g.) (12.5, 25, and 50 mg/kg) or at 0.03 h, 0.08, 0.25, 0.5, 1, 2, 4, 6, 8, 12, and 24 h after a single i.v. injection (2 mg/kg). The blood samples were processed to obtain the plasma via centrifugation at 3500 rpm for 10 min and then stored at −80°C until LC–MS/MS analysis.
The plasma samples obtained were processed using the method described in Section 2.4 and then analyzed using the established LC–MS/MS method. The data were processed using MultiQuant 3.0 software. According to the results of the blood drug concentration measurement in rats, the noncompartmental model in DAS 3.2.8 software was used to calculate the corresponding pharmacokinetic parameters, including peak time (Tmax), elimination half-life (T1/2), area under the drug-time curve (AUC0-t, AUC0-∞), maximum plasma concentration (Cmax), apparent volume of distribution (Vz/F), clearance rate (Clz/F), and average residence time (MRT0-t). GraphPad Prism 8 software was used to construct the trend chart of the changes in various parameters in plasma samples based on the measurements to analyze the possible pharmacokinetic characteristics of glytrexate.
If glytrexate has linear kinetic characteristics, the absolute bioavailability can be calculated according to the bioavailability formula, Fabs=(AUCT·Div)/(AUCiv·DT) × 100%, where AUC represents the area under the plasma concentration-time curve. The subscripts T and iv represent oral and intravenous injection, respectively, and D represents the administered dose. The data obtained in the study are expressed as the mean values plus or minus the standard deviation.

KB tumor cells = system: KB tumor cells; parameters: method as in Xing et al., 2017; settings: ref Xing et al., 2017, read-out: IC50, inhibitory action on KB tumor cells; cited from earlier work

fraction unbound at 30 min, 5 μg/ml ([1]; 5 μg/ml, 37°C, 30 min incubation, ultrafiltration): 0.863
fraction unbound at 30 min, 10 μg/ml ([1]; 10 μg/ml, 37°C, 30 min incubation, ultrafiltration): 0.813
fraction unbound at 30 min, 20 μg/ml ([1]; 20 μg/ml, 37°C, 30 min incubation, ultrafiltration): 0.947
fraction unbound at 30 min ([1]; over 5, 10 and 20 μg/ml): > 0.7
metabolic stability in human liver microsomes (in words) ([2]; up to 3 h): good microsomal stability
half-life at 0.1 mg/ml ([2]; human, liver microsomes, pH 7.4, NADPH, regression of ln remaining vs incubation time, read-out: half-life (t1/2) in human liver microsomes): 1.83 h
AUC(0-inf) ([4]; intravenous 2 mg/kg): 10200 ± 1710 ng·h/mL
Cmax ([4]; intravenous 2 mg/kg): 17600 ± 767 ng/mL
half-life ([4]; intravenous 2 mg/kg): 2.78 ± 0.26 h
AUC ([4]; intravenous 2 mg/kg): 10200 ± 1710 ng·h/mL
MRT last ([4]; intravenous 2 mg/kg): 0.91 ± 0.05 h
AUC(0-inf) ([4]; oral 12.5 mg/kg): 370 ± 26 ng·h/mL
Cmax ([4]; oral 12.5 mg/kg): 107 ± 12.1 ng/mL
half-life ([4]; oral 12.5 mg/kg): 2.15 ± 0.16 h
bioavailability ([4]; oral 12.5 mg/kg vs intravenous 2 mg/kg, read-out: F (bioavailability)): 0.57 ± 0.08%
AUC ([4]; oral 12.5 mg/kg): 362 ± 24.6 ng·h/mL
MRT last ([4]; oral 12.5 mg/kg): 3.12 ± 0.14 h
AUC(0-inf) ([4]; oral 25 mg/kg): 750 ± 30.2 ng·h/mL
Cmax ([4]; oral 25 mg/kg): 496 ± 19.8 ng/mL
half-life ([4]; oral 25 mg/kg): 2.25 ± 0.093 h
bioavailability ([4]; oral 25 mg/kg vs intravenous 2 mg/kg, read-out: F (bioavailability)): 0.59 ± 0.06%
AUC ([4]; oral 25 mg/kg): 750 ± 30.2 ng·h/mL
MRT last ([4]; oral 25 mg/kg): 2.95 ± 0.16 h
AUC(0-inf) ([4]; oral 50 mg/kg): 2960 ± 190 ng·h/mL
Cmax ([4]; oral 50 mg/kg): 1290 ± 109 ng/mL
half-life ([4]; oral 50 mg/kg): 2.66 ± 0.15 h
bioavailability ([4]; oral 50 mg/kg vs intravenous 2 mg/kg, read-out: F (bioavailability)): 1.15 ± 0.07%
AUC ([4]; oral 50 mg/kg): 2960 ± 189 ng·h/mL
MRT last ([4]; oral 50 mg/kg): 3.16 ± 0.096 h
bioavailability ([4]; oral dose range 12.5–50 mg/kg, read-out: oral bioavailability): 0.57 to 1.15%
CL/F ([4]; 12.5 mg/kg, oral 12.5 mg/kg): 565 mL/min/kg
Tmax ([4]; 12.5 mg/kg, oral 12.5 mg/kg, read-out: Tmax): 0.5 h
CL/F ([4]; 25 mg/kg, oral 25 mg/kg): 556 mL/min/kg
Tmax ([4]; 25 mg/kg, oral 25 mg/kg, read-out: Tmax): 0.5 h
CL/F ([4]; 50 mg/kg, oral 50 mg/kg): 282 mL/min/kg
Tmax ([4]; 50 mg/kg, oral 50 mg/kg, read-out: Tmax): 0.5 h
Tmax ([4]; 50 mg/kg, single oral administration 12.5, 25 and 50 mg/kg, read-out: Tmax (time of peak blood concentration)): 0.5 h
intravenous AUC of glytrexate relative to pemetrexed ([4]; glytrexate 2 mg/kg vs pemetrexed 10 mg/kg): approximately 1.63 fold
intravenous T1/2 of glytrexate relative to pemetrexed ([4]; intravenous): approximately 5 fold
Cl/F ([4]; intravenous 2 mg/kg): 3.33 ± 0.5 mL/min/kg
V/F ([4]; intravenous 2 mg/kg): 0.80 ± 0.15 L/kg
Cl/F ([4]; oral 12.5 mg/kg, 12.5 mg/kg): 564.8 ± 42.8 mL/min/kg
Cl/F ([4]; oral 25 mg/kg, 25 mg/kg): 556.2 ± 22 mL/min/kg
time of highest plasma concentration ([4]; single i.v. injection 2 mg/kg): 0.03 h
Compound: Nc1nc2[nH]c(CC(=O)NCC(=O)N[C@@H](CCC(=O)O)C(=O)O)cc2c(=O)[nH]1 [glytrexate, (S)-2-{2-[2-(2-amino-4-oxo-4,7-dihydro-3H-pyrrolo [2,3-d]pyrimidin-6-yl)-acetylamino]-acetylamino}-pentanedioic acid]
stability in human plasma compared with other matrices (in words) [3]: more stable in human plasma than in human liver microsomes and artificial gastrointestinal fluid; also recorded: more stable in human plasma than in rat plasma and in human liver microsomes; also recorded: greatest amount of remaining glytrexate was found in human plasma
V/F ([4]; oral 12.5 mg/kg, 12.5 mg/kg): 104.724 ± 6.709 L/kg and 104.72 ± 6.71 L/kg
V/F ([4]; oral 25 mg/kg, 25 mg/kg): 108.42 ± 7.698 L/kg and 108.42 ± 7.70 L/kg
V/F ([4]; oral 50 mg/kg, 50 mg/kg): 64.832 ± 4.529 L/kg and 64.83 ± 4.53 L/kg
IC50 (KB tumor cells): 0.078 nM
